{"source": "paper PMC7895427", "about": "“A stapled peptide mimetic of the CtIP tetramerization motif interferes with double-strand break repair and replication fork protection” (Science Advances, 2021)", "key": {"HeLa cells": {"tested_on": "HeLa cells", "assay": "Clonogenic survival assay", "type": "cell-based", "conditions": "10 μM, fig. S7A", "experimental": "(§1) Two hundred cells per well were seeded into poly-L-lysine (Sigma-Aldrich)–coated 24-well plates and the next day treated with respective drugs (CPT, Sigma-Aldrich; olaparib, Selleck Chemicals) and peptides (total volume: 300 μl per well). For details, see figure legends. After 10 days of growth, cells were fixed with crystal violet solution [0.5% crystal violet and 20% ethanol (w/v)]. Plates were scanned, and survival was analyzed with the ImageJ plugin Colony Area using the parameter colony intensity as readout ([47])."}, "MCF10A": {"tested_on": "MCF10A", "assay": "Clonogenic survival assay", "type": "cell-based", "conditions": "10 μM peptide 24 hours, 10 days growth; BRCA1 wt nontumorigenic cell line", "experimental": "as §1"}, "MCF7": {"tested_on": "MCF7", "assay": "Clonogenic survival assay", "type": "cell-based", "conditions": "10 μM peptide 24 hours, 10 days growth; BRCA1 wt breast cancer cell line", "experimental": "as §1"}, "RPE1": {"tested_on": "RPE1", "assay": "Clonogenic survival assay", "type": "cell-based", "conditions": "10 μM peptide 24 hours, 10 days growth; BRCA1 wt nontumorigenic cell line", "experimental": "as §1"}, "[1]": {"assay": "CD spectroscopy and CD thermal denaturation", "type": "physicochemical", "conditions": "210 nm, 25° until 90°C, ddH2O", "experimental": "CD spectroscopy data were collected on a Jasco J-710 spectropolarimeter. A total of 0.2 or 0.05 mg/ml of LP^18–28 or SP^18–28 in ddH2O was measured with a 1-mm path length cuvette. CD spectra were recorded at 0.5-nm intervals between 190 and 260 nm at 25°C. CD thermal denaturation data were recorded at 210 nm at 0.2°C intervals starting at 25° until 90°C."}, "U2OS cells": {"tested_on": "U2OS cells", "assay": "EdU incorporation, cell cycle distribution and cell proliferation", "type": "cell-based", "conditions": "fig. S5, E and F; proliferation at 5 μM", "experimental": "HeLa cells were seeded into six-well plates and incubated with peptides in a volume of 2 ml for varying time points. Cells were harvested by trypsinization, washed, and resuspended in PBS before subjecting them to flow cytometry analysis. FITC intensity was measured with an Attune Nxt flow cytometer equipped with a 488-nm laser and 530/30 band-pass filter. Analysis of 5-Ethynyl-2′-deoxyuridine (EdU) incorporation was carried out using the Click-iT EdU technology (Thermo Fisher Scientific) as described in the manufacturer’s instructions. A minimum of 20,000 events were recorded.\nA total of 125 and 250 U2OS cells were seeded in triplicates in 96-well plates in a volume of 90 μl. Twenty-four hours after seeding, 10 μl of medium only or medium with the indicated peptides was added to the wells reaching a final peptide concentration of 5 μM. Cell proliferation was monitored using a CellTiter-Blue–based (Promega) approach at specific time points (0, 2, 5, and 7 days after peptide treatment). In brief, 20-μl CellTiter-Blue reagent (Promega) was added to the wells, incubated for 4 hours, and fluorescence intensity was measured at 560/590 nm using a SpectraMax M5 microplate reader (Molecular Devices)."}, "U2OS^GFP-CtIP-wt": {"tested_on": "U2OS^GFP-CtIP-wt", "assay": "Laser microirradiation, GFP-CtIP recruitment to γH2AX-decorated laser stripes", "type": "cell-based", "conditions": "10 μM peptide, 24 hours, fixed 30 min after microirradiation; n = 4", "experimental": "Laser microirradiation was carried out as described previously ([25]). Briefly, cells were grown in 10 μM 5-bromo-2′-deoxyuridine (BrdU) for 24 hours before irradiation. Laser microirradiation was performed using a MMI CELLCUT system containing an ultraviolet (UV) A laser of 355 nm. Energy output was set to 50%, and each cell was exposed to laser beam for <300 ms. Cells were released for 30 min before fixation in 4% formaldehyde (w/v) in PBS for 15 min and permeabilization with 0.5% Triton X-100 (w/v) in PBS for 5 min at RT. After blocking with 3% FCS (w/v) in PBS for 1 hour, cells were stained with primary antibodies (table S3) for 2 hours. Staining with secondary antibodies (table S3) was performed for 1 hour. Coverslips were mounted with Vectashield supplemented with DAPI (4′,6-diamidino-2-phenylindole; Vector Laboratories), and images were acquired on a Leica DM6, 63× objective. For CtIP foci analyses, cells were fixed in 4% formaldehyde (w/v) in PBS for 15 min before permeabilization with 0.5% Triton X-100 (w/v) in PBS for 5 min at RT. A blocking step with 3% FCS (w/v) in PBS for 1 hour was followed by primary (2-hour) and secondary (1-hour) staining at RT."}, "full-length CtIP-wt": {"target": "T1, full-length CtIP-wt (Homo sapiens, UniProt Q99708)", "T1 construct": "Full-length CtIP was purified according to ([14]); 3xFLAG; made in house", "T1 sequence (Q99708 whole entry)": "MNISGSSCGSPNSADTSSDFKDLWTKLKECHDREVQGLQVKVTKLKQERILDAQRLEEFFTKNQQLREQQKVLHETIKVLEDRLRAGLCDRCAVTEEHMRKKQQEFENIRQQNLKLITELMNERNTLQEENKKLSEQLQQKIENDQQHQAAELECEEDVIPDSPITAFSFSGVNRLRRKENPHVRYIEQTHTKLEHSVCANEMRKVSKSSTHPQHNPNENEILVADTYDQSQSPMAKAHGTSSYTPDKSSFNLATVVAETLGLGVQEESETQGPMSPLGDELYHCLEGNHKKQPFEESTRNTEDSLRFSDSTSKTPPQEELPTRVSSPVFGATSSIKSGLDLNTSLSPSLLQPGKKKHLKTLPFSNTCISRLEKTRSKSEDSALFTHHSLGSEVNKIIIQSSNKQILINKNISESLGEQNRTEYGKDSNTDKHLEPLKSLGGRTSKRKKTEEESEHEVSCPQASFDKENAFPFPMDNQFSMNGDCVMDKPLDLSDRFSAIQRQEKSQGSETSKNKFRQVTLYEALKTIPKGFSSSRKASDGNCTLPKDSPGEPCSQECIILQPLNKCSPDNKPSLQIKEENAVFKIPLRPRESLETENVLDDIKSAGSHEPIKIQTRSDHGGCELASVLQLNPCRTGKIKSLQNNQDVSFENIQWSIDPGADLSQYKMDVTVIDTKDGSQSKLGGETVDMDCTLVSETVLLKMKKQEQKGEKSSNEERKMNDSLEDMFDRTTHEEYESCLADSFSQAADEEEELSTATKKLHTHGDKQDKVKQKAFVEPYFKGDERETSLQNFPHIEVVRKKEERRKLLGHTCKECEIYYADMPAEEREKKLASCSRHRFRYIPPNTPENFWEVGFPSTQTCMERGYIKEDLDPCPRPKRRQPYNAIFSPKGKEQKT", "assay": "Blue native PAGE of full-length CtIP incubated with peptides", "type": "biochemical", "conditions": "1- to 32-fold molar excess SP^18–28, 32-fold LP^18–28, 30 min RT", "experimental": "Reactions were assembled in a volume of 10 μl with a 1.5 μM final concentration of CtIP and either 0, 1.5, 3, 6, 12, 24, or 48 μM LP/SP^18–28 in buffer A [10 mM tris (pH 8.0), 25 mM NaCl, 5% glycerol, and 0.5 mM dithiothreitol (DTT)] and 1× Blue Native Loading buffer [50 mM bis-tris (pH 7.2), 6 N HCl, 50 mM NaCl, 10% (w/v) glycerol, and 0.001% Ponceau S]. After incubation for 30 min at RT, samples were loaded onto a NativePAGE Novex 3 to 12% bis-tris gel (Invitrogen) and run at 150 V for 75 min. Gels were fixed in 40% methanol (MeOH) and 10% acetic acid and destained with 8% acetic acid."}, "U2OS EGFP-HR": {"tested_on": "U2OS EGFP-HR", "assay": "HR reporter assay", "type": "cell-based", "conditions": "10 μM peptide, 24 hours; GFP-positive cells by flow cytometry; n = 4", "experimental": "HR reporter assay was performed as described previously ([45], [46]). Briefly, U2OS EGFP-HR were seeded into a 12-well plate and the day after transfected with pCBA I-SceI expression plasmid using jetPRIME transfection reagent (Polyplus). Four hours later, medium was exchanged, and cells were incubated with peptides for 24 hours in 1-ml total volume. Twenty-four hours later, medium was replaced, and cells were harvested 48 hours after I-SceI transfection. A-EJ reporter assay was performed according to ([10]) with some minor modifications. Specifically, U2OS EGFP-aEJ were seeded into six-well plates and siRNA transfected. Six hours later, cells were transfected with I-SceI expression plasmid (pCBA) using Fugene 6 (Promega). Medium was exchanged 24 hours after and replaced with 2-ml fresh medium and the peptides (10 μM). Twenty-four hours later, medium was again replaced with fresh medium without peptides, and 72 hours after I-SceI transfection, cells were harvested. GFP expression (readout for HR and a-EJ frequency) was measured by flow cytometry using the Attune Nxt flow cytometer equipped with a 488-nm laser and 530/30 band-pass filter. A minimum of 20,000 events were recorded."}}, "note": "Positions of bridges follow the written chain, without caps; N, C: chain ends. Non-standard residues stand in square brackets, D forms with d. Residues, ends and D or L forms follow the SMILES beside them. R8 = C=CCCCCCC[C@@](C)(N)C(=O)O; S5 = C=CCCC[C@](C)(N)C(=O)O"}
{"compound": "CC(=O)N[C@@H](CO)C(=O)N[C@]1(C)CCCCCCC=CCCC[C@@](C)(C(=O)N[C@@H](CC(C)C)C(=O)N[C@@H](CCCCN)C(N)=O)NC(=O)[C@H]([C@@H](C)O)NC(=O)[C@H](Cc2c[nH]c3ccccc23)NC(=O)[C@H](CC(C)C)NC(=O)[C@H](CC(=O)O)NC(=O)[C@H](CCCCN)NC(=O)[C@H](Cc2ccccc2)NC1=O", "note": "[SP^18–28] (Ac-S[R8]FKDLWT[S5]LK-NH2; staple 2-9)", "values": [{"measurement": "tolerability of acute peptide treatment (clonogenic)", "setting": "HeLa cells; acute (24-hour) treatment", "result": "well tolerated"}, {"measurement": "cytotoxicity of chronic peptide treatment on its own (clonogenic)", "setting": "HeLa cells; prolonged chronic treatment", "result": "extreme cytotoxicity"}, {"measurement": "cell survival (clonogenic)", "setting": "MCF10A", "result": "did not perceive a negative impact on cell survival"}, {"measurement": "cell survival (clonogenic)", "setting": "MCF7", "result": "did not perceive a negative impact on cell survival"}, {"measurement": "cell survival (clonogenic)", "setting": "RPE1", "result": "did not perceive a negative impact on cell survival"}, {"measurement": "heat stability of secondary structure (CD thermal denaturation)", "setting": "[1]", "result": "no unfolding could be observed at temperatures of up to 90 °C"}, {"measurement": "bulk DNA replication, cell cycle distribution and cell proliferation", "setting": "U2OS cells", "result": "neither interferes with bulk DNA replication nor causes any significant changes in cell cycle distribution and cell proliferation"}]}
{"compound": "Ac-SDFKDLWTKLK-NH2 [LP^18–28]", "values": [{"measurement": "CtIP recruitment to γH2AX-decorated laser stripes", "setting": "U2OS^GFP-CtIP-wt", "result": "no significant effect"}, {"measurement": "effect on CtIP-wt oligomeric state", "setting": "full-length CtIP-wt", "result": "no apparent structural changes"}, {"measurement": "HR frequency of I-SceI–induced DSBs", "setting": "U2OS EGFP-HR", "result": "no measurable impact"}]}
